Here are results for 1 compound from paper PMC6987128, “Target protein-oriented isolation of Hes1 dimer inhibitors using protein based methods” (Scientific Reports, 2020).

In the test the test system is C17.2 mouse neural stem cells. Nature of the test: Neural stem cell differentiation assay (Tuj1/GFAP immunofluorescence staining). It counts as cell-based. The note with it: C17.2 cells, 6 days; for increase of neurons compared to control: vs DMSO control. From the text:
We recently developed another protein-based screening method, the target protein oriented natural products isolation method (TPO-NAPI) using protein beads (Fig. 2B). Agalloside, inohanamine, α-mangostine, BE-14106, isomicromonolactam, staurosporin and linarin were isolated as Hes1 binding compounds using the TPO-NAPI method[15],[17]. Rat Hes1 (1–95) containing basic and helix-loop-helix domains was immobilized because the helix-loop-helix domain is known to be important for Hes1-Hes1 interaction; therefore, utilizing this domain in the beads method would likely be effective for screening Hes1 dimer inhibitors. GST-Hes1 immobilized beads were prepared by mixing freshly prepared GST-Hes1 protein with glutathione Sepharose 4B beads. GST-only beads were prepared as a control. After incubating the beads with plant MeOH extracts at 4 °C for 2 h, bound compounds were eluted by adding EtOH and heating at 100 °C for 3 min, then the eluted compounds were analyzed by HPLC. […] The MeOH extract (64.6 g) of Terminalia chebula bark was partitioned with hexane, EtOAc and BuOH to obtain hexane (1.5 g), EtOAc (3.6 g), BuOH (42.6 g), and aqueous (20.5 g) soluble fractions. The EtOAc fraction contained the target peak and was subjected to silica gel column chromatography to give eight fractions (1A-H). Fraction 1D contained the target peak and was separated by ODS column chromatography and reverse-phase HPLC to give compound 11 (0.4 mg). Compound 11 was identified as 4-O-(4″-O-galloyl-α-L-rhamnopyranosyl)ellagic acid by comparison of its NMR data with reported spectral data[37]. […] This is the strongest Hes1 dimer inhibitor reported to date. The ability of 11 to accelerate the differentiation of C17.2 mouse neural stem cells was evaluated (Fig. 5). C17.2 cells (2 × 10^5 cells/mL) were seeded in a poly-L-lysine-coated 24 well plates and incubated for 24 h, then the cells were treated with DMSO (control), 100 μM valproic acid (VPA), 5 μM retinoic acid (RA) (positive controls) or 11 (1 or 5 μM) for 6 days. A confocal microscope was used to obtain images of differentiated neural cells after immunostaining class III β-tubulin (Tuj1) in neurons, and glial fibrillary acidic protein (GFAP) in astrocytes and nuclei (TO-PRO-3). […] In contrast, the control dish containing cells treated with DMSO contained small number of neurons.
C17.2 cells were cultured in proliferation medium [DMEM (DS Pharma Biomedical Co., Ltd. Osaka, Japan) supplemented with 10% fetal bovine serum (Biowest, Nuaillé, France), 5% horse serum (Gibco, Life Technologies, Tokyo, Japan)]. Neural differentiation of C17.2 cells was initiated by transferring the cells to differentiation medium [Neurobasal Medium (Gibco) supplemented with 2% B-27 without vitamin A (Gibco), 1% antibiotic-antimycotic (Gibco)]. All cultures were maintained in a humidified incubator at 37 °C in 5% CO2/95% air.
C17.2 cells were dissociated using the proliferation medium 2 × 10^5 cells/mL on cover glass (MATSUNAMI GLASS) coated with poly-L-lysine and fibronectin/laminin. After incubation for 24 h, cells were washed with D-MEM and treated with individual compounds in differentiation medium for 6 days.
C17.2 cells were fixed with 4% paraformaldehyde in PBS for 20 min at room temperature (r.t.) and washed with 1% BSA in PBS three times. After blocking with 10% BSA in 0.3% Triton X-100 in PBS for 45 min at r.t., fixed cells were incubated with primary antibodies (anti-βIII-Tubulin; Neuronal Class III, Mouse-Mono, 1:400, R&D Systems^TM; anti-GFAP, 1:400, VERITAS) for 12 h at 4 °C. After washing three times with 1% BSA in PBS (500 μL/well), cells were incubated with secondary antibodies (Alexa Fluor® 488 goat anti-mouse IgG (H + L), 1:400, Life Technologies; Alexa Fluor® 555 goat ant-rabbit IgG (H + L), 1:200, Life Technologies) for 1 hr at r.t. in the dark. […]

In the case of `CC1OC(Oc2cc3c(=O)oc4c(O)c(O)cc5c(=O)oc(c2O)c3c45)C(O)C(O)C1OC(=O)c1cc(O)c(O)c(O)c1` [Compound 11, 4-O-(4″-O-galloyl-α-L-rhamnopyranosyl)ellagic acid], the differentiated neurons is reported as 33.6% (1 µM) and 45.4% (5 µM). Further, the “increase of neurons compared to control” value is recorded as 67% (1 µM) and 125% (5 µM).
